The experiment addresses T1, DacM (Δ2-33DacM; DacM (35-203)) (Mesomycoplasma ovipneumoniae, UniProt A0A014M399).
T1 construct: gene MOVI_0530; N-terminal transmembrane helix removed (Δ2-33); codon-optimized gene in pET28b, E. coli BL21(DE3), N-terminal His6 fusion; homodimer in crystal
T1 sequence (A0A014M399 35-203): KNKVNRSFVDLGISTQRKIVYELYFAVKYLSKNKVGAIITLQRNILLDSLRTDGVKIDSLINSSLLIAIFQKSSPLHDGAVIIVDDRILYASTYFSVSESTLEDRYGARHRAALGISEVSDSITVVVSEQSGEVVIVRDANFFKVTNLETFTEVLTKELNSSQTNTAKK
The experiment can be described thus: X-ray crystal structure of complex, […] Å; also LC-MS detection of c-di-AMP formation. As to conditions: activity assay: 2 μM enzyme, 10 mM MgCl2, Tris-HCl pH 7.5, 37 °C, 1 h. It counts as binding.

The text below walks through data of article doi:10.1101/2022.03.11.483894v1, “Structure and function of diadenylate cyclase DacM from Mycoplasma ovipneumoniae” (biorxiv, 2022).

With `Nc1ncnc2c1ncn2[C@@H]1O[C@H](COP(=O)(O)OP(=O)(O)O)[C@@H](O)[C@H]1O` [ADP], the “X-ray crystal structure of complex, 1.9 Å; also LC-MS detection of c-di-AMP form” value (crystal grown with ATP as additive, 16 °C, HEPES pH 7.5, active site of protomer B, 0.1 mM ADP) is “active site of the second DacM protomer (protomer B), was consistent with a bound molecule of ADP”.
As for `Nc1ncnc2c1ncn2[C@@H]1O[C@H](COP(=O)(O)OP(=O)(O)OP(=O)(O)O)[C@@H](O)[C@H]1O` [ATP], the “X-ray crystal structure of complex, 1.9 Å; also LC-MS detection of c-di-AMP form” value (crystal: 16 °C, HEPES pH 7.5, active site of protomer A, 0.1 mM ATP) is listed as “an ATP molecule, which was clearly bound in the active site of one DacM protomer”.
